Reference: patent US12274684B2, “Treatment of vasculopathy with prostacyclin and mesenchymal stem cells” (United Therapeutics Corporation, priority 2013, dated 2025)

Test system: human bone marrow MSC
Test: Microarray gene expression analysis of MSC (Illumina Human HT12 Expression BeadChip)
Assay type: cell-based
Settings: Tre(+) 250 μg/mL, 24 h
Experimental: Human bone marrow MSC were expanded and seeded into six (6) T225 flasks using standard growth medium (Table 1). At 95-99% confluency, cells were thoroughly washed with PBS. Three (3) flasks were replenished with basal media containing 250 μg/mL treprostinil, (+)Tre, and the remaining three (3) flasks were replenished with unsupplemented basal media, (−)Tre. After 24 hours of culture, representative images were captured from (+) Tre and (−) Tre cultures. Conditioned media was collected from each replicate, divided into two samples of appropriate volumes, and analyzed separately for: 1) secreted proteins (Myriad RBM InflammationMAP® 1.0) and 2) exosome RNA content. Cells were lysed directly from culture flasks, processed for total RNA isolation, and analyzed for gene expression by microarray (Illumina Human HT12 Expression BeadChip). Microarray gene expression analysis was also performed on MSC from cultures without (−) or with (+) 250 ug/mL treprostinil. Three (3) biological replicates from each condition were analyzed. Of the 77,612 sequences identified among all replicates, only 24,273 were detected above the arbitrary background of 50 counts. 2,984 RNA sequences were unique to Tre(−) cultures, while 1,781 RNA sequences were unique to Tre(+) cultures (panel A). Genes detected in both conditions were further analyzed for differential expression (panel). […] Genes that are expressed only in Tre(−) cultures (that is to say, completely turned off in the Tre(+) cultures) are shown in Table 5.

SMILES: CCCCC[C@H](O)CC[C@@H]1[C@H]2Cc3cccc(OCC(=O)O)c3C[C@H]2C[C@H]1O [treprostinil]
- CLDN11 (NM_005602) expression, AVG (Tre(−) AVG 543): 13 counts
- FAM198B (NM_001128424) expression, AVG (Tre(−) AVG 559): 15 counts
- SLC7A8 (NM_182728) expression, AVG (Tre(−) AVG 613): 43 counts
- ASPM (NM_018136) expression, AVG (Tre(−) AVG 625): 26 counts
- CPA4 (NM_016352) expression, AVG (Tre(−) AVG 631): 53 counts
- CELF1 (NM_001172640) expression, AVG (Tre(−) AVG 644): 59 counts
- TCF12 (NM_207040) expression, AVG (Tre(−) AVG 648): 40 counts
- SCN2A (NM_021007) expression, AVG (Tre(−) AVG 652): 20 counts
- ASPH (NM_001164754) expression, AVG (Tre(−) AVG 658): 37 counts
- CIT (NM_001206999) expression, AVG (Tre(−) AVG 661): 9 counts
- VEGFA (NM_001171626) expression, AVG (Tre(−) AVG 664): 7603 counts
- ANLN (NM_018685) expression, AVG (Tre(−) AVG 669): 57 counts
- ST8SIA1 (NM_003034) expression, AVG (Tre(−) AVG 731): 45 counts
- TPM1 (NM_001018007) expression, AVG (Tre(−) AVG 731): 36 counts
- FAM84A (NM_145175) expression, AVG (Tre(−) AVG 733): 45 counts
- SPATA20 (NM_022827) expression, AVG (Tre(−) AVG 733): 15 counts
- PRRT2 (NM_145239) expression, AVG (Tre(−) AVG 744): 36 counts
- LRRC17 (NM_001031692) expression, AVG (Tre(−) AVG 746): 22 counts
- ANGPT1 (NM_001146) expression, AVG (Tre(−) AVG 780): 53 counts
- ANK3 (NM_001204403) expression, AVG (Tre(−) AVG 811): 57 counts
- SNX14 (NM_153816) expression, AVG (Tre(−) AVG 813): 18 counts
- RCAN1 (NM_203418) expression, AVG (Tre(−) AVG 814): 8908 counts
- OLFML1 (NM_198474) expression, AVG (Table 5) (Tre(−) AVG 816): 42 counts
- RASA4 (NM_006989) expression, AVG (Tre(−) AVG 857): 11 counts
- GDF5 (NM_000557) expression, AVG (Tre(−) AVG 883): 71 counts
- MAP1B (NM_005909) expression, AVG (Tre(−) AVG 886): 42 counts
- C13orf33 (NM_032849) expression, AVG (Tre(−) AVG 918): 19296 counts
- MEOX2 (NM_005924) expression, AVG (Tre(−) AVG 982): 31 counts
- MYLK (NM_053025) expression, AVG (Tre(−) AVG 991): 0 counts
- SLC14A1 (NM_015865) expression, AVG (Table 5) (Tre(−) AVG 1036): 19 counts
- FLG (NM_002016) expression, AVG (Tre(−) AVG 1052): 28 counts
- ARPC4 (NM_001024960) expression, AVG (Tre(−) AVG 1150): 12 counts
- RCAN2 (NM_001251974) expression, AVG (Tre(−) AVG 1218): 105 counts
- EPB41L2 (NM_001199389) expression, AVG (Tre(−) AVG 1272): 113 counts
- SLC2A12 (NM_145176) expression, AVG (Tre(−) AVG 1281): 105 counts
- MEST (NM_002402) expression, AVG (Tre(−) AVG 1283): 85 counts
- METTL7A (NM_014033) expression, AVG (Tre(−) AVG 1299): 109 counts
- S100A4 (NM_002961) expression, AVG (Tre(−) AVG 1312): 125 counts
- RBFOX2 (NM_001031695) expression, AVG (Tre(−) AVG 1316): 10 counts
- ACTN1 (NM_001130005) expression, AVG (Tre(−) AVG 1459): 115 counts
- OLFML2B (NM_015441) expression, AVG (Tre(−) AVG 1465): 70 counts
- PRELP (NM_002725) expression, AVG (Tre(−) AVG 1474): 114 counts
- COL21A1 (NM_030820) expression, AVG (Tre(−) AVG 1569): 57 counts
- SLC14A1 (NM_015865) expression, AVG (Table 4) (Tre(−) AVG 1621): 88 counts
- DDAH1 (NM_001134445) expression, AVG (Tre(−) AVG 1685): 133 counts
- LMOD1 (NM_012134) expression, AVG (Tre(−) AVG 1722): 65 counts
- OLFML1 (NM_198474) expression, AVG (Table 4) (Tre(−) AVG 1734): 140 counts
- MXRA5 (NM_015419) expression, AVG (Tre(−) AVG 1759): 54 counts
- DKFZp547J0510 (CDNA FLJ42650 fis, clone BRACE3027478) expression, AVG (Tre(−) AVG 1932): 148 counts
- PLIN2 (NM_001122) expression, AVG (Tre(−) AVG 1976): 92927 counts
- SYNPO2 (NM_001128933) expression, AVG (Tre(−) AVG 2551): 104 counts
- ASPH (NM_004318) expression, AVG (Tre(−) AVG 2719): 1 counts
- SREBF1 (NM_001005291) expression, AVG (Tre(−) AVG 2936): 12 counts
- SLC3A2 (NM_001013251) expression, AVG (Tre(−) AVG 3190): 33526 counts
- PDE5A (NM_033430) expression, AVG (Tre(−) AVG 3361): 222 counts
- MEST (NM_177525) expression, AVG (Tre(−) AVG 3552): 298 counts
- RND3 (NM_005168) expression, AVG (Tre(−) AVG 4013): 51756 counts
- ISLR (NM_005545) expression, AVG (Tre(−) AVG 5533): 548 counts
- PALLD (NM_001166109) expression, AVG (Tre(−) AVG 9809): 753 counts
- CXCL12 (NM_199168) expression, AVG (Tre(−) AVG 10574): 671 counts
- CTGF (NM_001901) expression, AVG (Tre(−) AVG 23012): 741 counts
- COL6A3 (NM_004369) expression, AVG (Tre(−) AVG 54326): 4635 counts
